This passage reports EC50 results from patent US11117905B2, “Bisaryl heterocycles as NRF2 activators” (GLAXOSMITHKLINE INTELLECTUAL PROPERTY DEVELOPMENT LIMITED, priority 2016, dated 2021).

Structures can show the parent of a compound that is named as a salt.

In one test the test system is NQO1 specific enzyme activity in BEAS-2B cells (marker for NRF2 activation). As to the kind of experiment: BEAS-2B NQO1 MTT Assay. The note with it: Homo sapiens, BEAS-2B, 48 h, NQO1 specific activity induction, 48 hours with compound. Type of test: cell-based. An excerpt:
NAD(P)H:quinone oxidoreductase 1 (NQO1), also called DT diaphorase, is a homodimeric FAD-containing enzyme that catalyzes obligatory NAD(P)H-dependent two-electron reductions of quinones and protects cells against the toxic and neoplastic effects of free radicals and reactive oxygen species arising from one-electron reductions. The transcription of NQO1 is finely regulated by NRF2, and thus NQO1 activity is a good marker for NRF2 activation. On day one, frozen BEAS-2B cells (ATCC) were thawed in a water bath, counted, and re-suspended at a concentration of 250,000 cells/mL. Fifty microliters of cells were plated in 384 well black clear-bottomed plates. Plates were incubated at 37° C., 5% CO2 overnight. On day two, plates were centrifuged and 50 nL of compound or controls were added to the cells. Plates were then incubated at 37° C., 5% CO2 for 48 hours. On day four, medium was aspirated from the plate and crude cell lysates were made by adding 13 uL of 1× Cell Signaling Technologies lysis buffer with 1 Complete, Mini, EDTA-free Protease Inhibitor Tablet (Roche) for each 10 mL of lysis buffer. After lysis plates were incubated for 20 minutes at room temperature. Two microliters of lysate were removed for use in Cell Titer Glo assay (Promega) and MTT cocktail was prepared (Prochaska et. al. 1998) for measurement of NQO1 activity. Fifty microliters of MTT cocktail is added to each well, plate is centrifuged, and analyzed on an Envision plate reader (Perkin Elmer) using Absorbance 570 nm label for 30 minutes. Product formation was measured kinetically and the pEC50 of NQO1 specific activity induction was calculated by plotting the change in absorbance (Delta OD/min) versus the log of compound concentration followed by 3-parameter fitting.
pEC50 is the negative log of the EC50.
EC50s<1 nM (+++++), EC50s 1 nM-10 nM (++++), EC50s 10 nM-100 nM (+++), EC50s 100 nM-1 uM (++), EC50s 1 uM-10 uM (+), EC50s>10 uM (−), or were not determined (ND).
As for `CCn1nnc2c(C)c([C@H](c3nc(CN4C[C@@H](C)Cc5cc(C(F)(F)F)ccc5S4(=O)=O)c(C)s3)C(C)(C)C(=O)Nc3cccnc3)ccc21` [Example 45, (S)-3-(1-Ethyl-4-methyl-1H-benzo[d][1,2,3]triazol-5-yl)-2,2-dimethyl-3-(5-methyl-4-(((S)-4-methyl-1,1-dioxido-7-(trifluoromethyl)-4,5-dihydrobenzo[f][1,2]thiazepin-2(3H)-yl)methyl)thiazol-2-yl)-N-(pyridin-3-yl)propanamide], the EC50 lay in the range of 10 to 100 nM.
Still for that read-out and setting: under `CC[C@@H]1CN(Cc2nc([C@@H](c3ccc4c(nnn4CC)c3C)C(C)(C)C(=O)Nc3cccnc3)sc2C)S(=O)(=O)c2ncccc2O1` [Example 30, (S)-3-(4-(((R)-4-Ethyl-1,1-dioxido-3,4-dihydro-2H-pyrido[3,2-b][1,4,5]oxathiazepin-2-yl)methyl)-5-methylthiazol-2-yl)-3-(1-ethyl-4-methyl-1H-benzo[d][1,2,3]triazol-5-yl)-2,2-dimethyl-N-(pyridin-3-yl)propanamide] stands 100 to 1000 nM; under `CCn1nnc2c(C)c([C@@H](c3cc(CN4C[C@@H](C)Cc5ccc(C(F)(F)F)cc5S4(=O)=O)n(C)n3)C(C)(C)C(=O)O)ccc21` [Example 37, (R)-3-(1-Ethyl-4-methyl-1H-benzo[d][1,2,3]triazol-5-yl)-2,2-dimethyl-3-(1-methyl-5-(((S)-4-methyl-1,1-dioxido-8-(trifluoromethyl)-4,5-dihydrobenzo[f][1,2]thiazepin-2(3H)-yl)methyl)-1H-pyrazol-3-yl)propanoic Acid], 100 to 1000 nM; under `CCn1cc(CC[C@H](c2cc(CN3C[C@@H](C)Cc4ncccc4S3(=O)=O)c(C)s2)C(C)(C)C(=O)O)nn1` [Example 62, (S)-5-(1-Ethyl-1H-1,2,3-triazol-4-yl)-2,2-dimethyl-3-(5-methyl-4-(((S)-4-methyl-1,1-dioxido-4,5-dihydropyrido[2,3-f][1,2]thiazepin-2(3H)-yl)methyl)thiophen-2-yl)pentanoic Acid], 1 to 10 nM.
Same read-out and setting: under `CC[C@@H]1CN(Cc2cc([C@@H](c3ccc4c(nnn4CC)c3C)C(C)(C)C(=O)Nc3nnn[nH]3)sc2C)S(=O)(=O)c2ccccc2O1` [Example 65, (S)-3-(4-(((R)-4-Ethyl-1,1-dioxido-3,4-dihydro-2H-benzo[b][1,4,5]oxathiazepin-2-yl)methyl)-5-methylthiophen-2-yl)-3-(1-ethyl-4-methyl-1H-benzo[d][1,2,3]triazol-5-yl)-2,2-dimethyl-N-(1H-tetrazol-5-yl)propanamide, 0.10Formic Acid Salt] stands 10 to 100 nM; under `CCn1nnc2c(C)c([C@H](c3cc(CN4C[C@@H](C)Cc5ccccc5S4(=O)=O)c(C)s3)C(C)(C)C(=O)Nc3cccnc3)ccc21` [Example 52, (S)-3-(1-Ethyl-4-methyl-1H-benzo[d][1,2,3]triazol-5-yl)-2,2-dimethyl-3-(5-methyl-4-(((S)-4-methyl-1,1-dioxido-4,5-dihydrobenzo[f][1,2]thiazepin-2(3H)-yl)methyl)thiophen-2-yl)-N-(pyridin-3-yl)propanamide], 1 to 10 nM; under `CC[C@@H]1CN(Cc2nc([C@@H](c3ccc4c(nnn4CC)c3C)C(C)(C)C(=O)Nc3cccnc3)sc2C)S(=O)(=O)c2cnccc2O1` [Example 28, (S)-3-(4-(((R)-4-Ethyl-1,1-dioxido-3,4-dihydro-2H-pyrido[4,3-b][1,4,5]oxathiazepin-2-yl)methyl)-5-methylthiazol-2-yl)-3-(1-ethyl-4-methyl-1H-benzo[d][1,2,3]triazol-5-yl)-2,2-dimethyl-N-(pyridin-3-yl)propanamide], 100 to 1000 nM.
On the same count and under the same terms, under `CC[C@H]1Cc2ccccc2S(=O)(=O)N(Cc2nc([C@@H](c3ccc4c(nnn4CC)c3C)C(C)(C)C(=O)O)sc2C)C1` [Example 41, (S)-3-(4-(((S)-4-Ethyl-1,1-dioxido-4,5-dihydrobenzo[f][1,2]thiazepin-2(3H)-yl)methyl)-5-methylthiazol-2-yl)-3-(1-ethyl-4-methyl-1H-benzo[d][1,2,3]triazol-5-yl)-2,2-dimethylpropanoic Acid] stands < 1 nM; under `CC[C@@H]1CN(Cc2cc([C@@H](c3ccc4c(nnn4CC)c3C)C(C)(C)C(=O)O)sc2C)S(=O)(=O)c2cccnc2O1` [Example 7, (S)-3-(4-(((R)-4-Ethyl-1,1-dioxido-3,4-dihydro-2H-pyrido[2,3-b][1,4,5]oxathiazepin-2-yl)methyl)-5-methylthiophen-2-yl)-3-(1-ethyl-4-methyl-1H-benzo[d][1,2,3]triazol-5-yl)-2,2-dimethylpropanoic acid], < 1 nM.
In the case of `CCn1nnc2c(C)c([C@@H](c3cc(CN4C[C@@H](C)Cc5ncccc5S4(=O)=O)n(C)n3)C(C)(C)C(=O)O)ccc21` [Example 23, (R)-3-(1-Ethyl-4-methyl-1H-benzo[d][1,2,3]triazol-5-yl)-2,2-dimethyl-3-(1-methyl-5-(((S)-4-methyl-1,1-dioxido-4,5-dihydropyrido[2,3-f][1,2]thiazepin-2(3H)-yl)methyl)-1H-pyrazol-3-yl)propanoic Acid], the EC50 lay within 1000 to 10000 nM.
Still for that read-out and setting: under `CC[C@@H]1CN(Cc2nc([C@@H](c3ccc4c(nnn4CC)c3C)C(C)(C)C(=O)Nc3cccnc3)sc2C)S(=O)(=O)c2cccnc2O1` [Example 25, (S)-3-(4-(((R)-4-Ethyl-1,1-dioxido-3,4-dihydro-2H-pyrido[2,3-b][1,4,5]oxathiazepin-2-yl)methyl)-5-methylthiazol-2-yl)-3-(1-ethyl-4-methyl-1H-benzo[d][1,2,3]triazol-5-yl)-2,2-dimethyl-N-(pyridin-3-yl)propanamide] stands 100 to 1000 nM.
Still for that read-out and setting: under `CC[C@@H]1CN(Cc2cc([C@@H](c3ccc4c(nnn4CC)c3C)C(C)(C)C(=O)Nc3cccnc3)sc2C)S(=O)(=O)c2ccccc2O1` [Example 51, (S)-3-(4-(((R)-4-Ethyl-1,1-dioxido-3,4-dihydro-2H-benzo[b][1,4,5]oxathiazepin-2-yl)methyl)-5-methylthiophen-2-yl)-3-(1-ethyl-4-methyl-1H-benzo[d][1,2,3]triazol-5-yl)-2,2-dimethyl-N-(pyridin-3-yl)propanamide] stands 1 to 10 nM; under `CC[C@@H]1CN(Cc2cc([C@@H](c3ccc4c(nnn4CC)c3C)C(C)(C)C(=O)O)sc2C)Cc2ncccc2O1` [Example 60, (S)-3-(4-(((R)-2-Ethyl-2,3-dihydropyrido[2,3-f][1,4]oxazepin-4(5H)-yl)methyl)-5-methylthiophen-2-yl)-3-(1-ethyl-4-methyl-1H-benzo[d][1,2,3]triazol-5-yl)-2,2-dimethylpropanoic Acid], 1 to 10 nM; under `CC[C@@H]1CN(Cc2nc([C@@H](c3ccc4c(nnn4CC)c3C)C(C)(C)C(=O)O)sc2C)S(=O)(=O)c2cccnc2O1` [Example 26, (S)-3-(4-(((R)-4-Ethyl-1,1-dioxido-3,4-dihydro-2H-pyrido[2,3-b][1,4,5]oxathiazepin-2-yl)methyl)-5-methylthiazol-2-yl)-3-(1-ethyl-4-methyl-1H-benzo[d][1,2,3]triazol-5-yl)-2,2-dimethylpropanoic Acid], 1 to 10 nM.

The test is the same for the next values; noted with them: NQO1 specific activity induction, 48 hours with compound.
Take `CC[C@@H]1CN(Cc2cc(C(CC(=O)O)c3ccc4c(nnn4CC)c3C)sc2C)S(=O)(=O)c2ccccc2O1` (single isomer, unassigned; isomer 2) [Example 21, (R or S)-3-(4-(((R)-4-Ethyl-1,1-dioxido-3,4-dihydro-2H-benzo[b][1,4,5]oxathiazepin-2-yl)methyl)-5-methylthiophen-2-yl)-3-(1-ethyl-4-methyl-1H-benzo[d][1,2,3]triazol-5-yl)propanoic Acid Isomer 2]: the EC50 fell in the range of 100 to 1000 nM.
